Source: patent US10639298B2 (Biohaven Pharmaceutical Holding Company Ltd., priority 2015, dated 2020)
Read-outs that look alike come from different tables or passages of the source.

Legend:
[1] = Rat pharmacokinetic studies of prodrug and released riluzole (IV or oral); assay type: in vivo, Sprague-Dawley rats; settings: rat, plasma, fasted male Sprague Dawley rats; for clearance: read-out: Compound of the disclosure Cl (converted); for Vd: read-out: Compound of the disclosure Vss; for half-life: read-out: Compound of the disclosure t1/2 (converted)
Method: Rat Pharmacokinetic Studies of the Compounds of the Disclosure:
Blood samples were collected at pre-determined time points including a 0 h time point and usually between 7 and 8 additional time points not exceeding a 24 h period.
Plasma samples were extracted and analyzed using the methods described in Plasma Sample Extraction and Analysis. All data are expressed as ng/mL of the free base. Samples that were below the limit of quantification (0.5 ng/mL) were not used in the calculation of averages.
Pharmacokinetic parameters were calculated from the time course of the plasmaconcentrations. Pharmacokinetic parameters were determined with Phoenix Winnonlin (v6.3) software using a non-compartmental model. The maximum plasma concentration (Cmax) and time to the maximum plasma concentration (Tmax) of the compound of the disclosure were observed from the data. The area under the concentration-time curve (AUC) of the compound of the disclosure was calculated using the trapezoidal formula with calculation to the last quantifiable data point, and to infinity if applicable. Plasma half-life (t½) was calculated from 0.693/slope of the terminal elimination phase. Mean residence time, MRT, was calculated by dividing the area under the moment curve (AUMC) by the AUC. Any samples below the limit of quantitation (0.5 ng/mL) were treated as zero for pharmacokinetic data analysis.
Plasma Sample Extraction and Analysis:
Analytical stock solutions (1.00 mg/mL of the free compound of the disclosure) were prepared in DMSO. Standards were prepared in diluted matrix containing 1 part 10% formic acid and 9 parts Sprague-Dawley rat plasma containing sodium heparin as the anticoagulant (pre-diluted with 1 part of 0.5M citric acid and 9 parts whole blood). Working solutions were prepared in 50:50 acetonitrile:water. Working solutions were then added to plasma to make calibration standards to final concentrations of 1000, 500, 100, 50, 10, 5, 1, and 0.5 ng/mL. Standards contained both the test article and riluzole. Standards were treated identically to the study samples.
Plasma samples were extracted via acetonitrile precipitation on a Tomtec Quadra 96-Model 320 liquid handling system in a 96-well plate format.

[2] = PK in fasted male mice, prodrug and released riluzole (IV, PO); settings: mouse, in vivo; for AUC(0-t): read-out: Prodrug AUClast (Mean)
[3] = tested on: Stage III and IV melanoma; settings: 14 days of treatment, cited from earlier work
[4] = IV, prodrug dose 2.8 mg/Kg, read-out: Compound of the disclosure AUClast
[5] = PO 5 mg/kg, read-out: Prodrug AUClast (Mean)

Row | Compound | AUC(0-t) [1, 4] | clearance ([1]; IV, prodrug dose 2.8 mg/Kg) | Vd ([1]; IV, prodrug dose 2.8 mg/Kg) | half-life ([1]; IV, prodrug dose 2.8 mg/Kg) | further results
1 | NCC(=O)NC1(C(=O)Nc2nc3ccc(OC(F)(F)F)cc3s2)CCC1 [Example 82, 1-(2-aminoacetamido)-N-(6-(trifluoromethoxy)benzo[d]thiazol-2-yl)cyclobutane-1-carboxamide] | 0.663 µg·h/mL | 4.28 L/h/kg | 4.14 L/kg | 1.03 h | 
2 | CN(CC(=O)Nc1nc2ccc(OC(F)(F)F)cc2s1)C(=O)CNC1CCNCC1 [Example 216, N-Bethyl-2-[(piperidin-4-yl)amino]-N-({[6-(trifluoromethoxy)-1,3-benzothiazol-2-yl]carbamoyl}methyl)acetamide] | 1.91 µg·h/mL | 1.38 L/h/kg | 2.53 L/kg | 3.98 h | Cmax ([1]; PO 5 mg/kg): 2.96 ng/mL; Tmax ([1]; PO 5 mg/kg): 2.17 h; AUC(0-t) [1, 5]: 0.0166 µg·h/mL
3 | CC(C)(CN)C(=O)N1CCC[C@H]1C(=O)Nc1nc2ccc(OC(F)(F)F)cc2s1 [Example 59, (S)-1-(3-amino-2,2-dimethylpropanoyl)-N-(6-(trifluoromethoxy)benzo[d]thiazol-2-yl)pyrrolidine-2-carboxamide] | 2.77 µg·h/mL | 0.64 L/h/kg | 5.11 L/kg | 6.2 h | 
4 | CN(CC(=O)Nc1nc2ccc(OC(F)(F)F)cc2s1)C(=O)CNC1CNC1 [Example 212, 2-[(Azetidin-3-yl)amino]-N-methyl-N-({[6-(trifluoromethoxy)-1,3-benzothiazol-2-yl]carbamoyl}methyl)acetamide] |  |  |  |  | AUC(0-t) ([1]; IV, prodrug dose 1.4 mg/Kg, read-out: Compound of the disclosure AUClast): 0.218 µg·h/mL; clearance ([1]; IV, prodrug dose 1.4 mg/Kg): 6.26 L/h/kg; Vd ([1]; IV, prodrug dose 1.4 mg/Kg): 6.21 L/kg; half-life ([1]; IV, prodrug dose 1.4 mg/Kg): 2.43 h
5 | CC(C)NCC(=O)NC(C)(C)C(=O)Nc1nc2ccc(OC(F)(F)F)cc2s1 [Example 113, 2-(2-(isopropylamino)acetamido)-2-methyl-N-(6-(trifluoromethoxy)benzo[d]thiazol-2-yl)propanamide] | 2.76 µg·h/mL | 0.69 L/h/kg | 4.88 L/kg | 5.45 h | 
6 | CNCC(=O)NC(C)(C)C(=O)Nc1nc2ccc(OC(F)(F)F)cc2s1 [Example 111, 2-methyl-2-(2-(methylamino)acetamido)-N-(6-(trifluoromethoxy)benzo[d]thiazol-2-yl)propanamide] | 4.65 µg·h/mL | 0.345 L/h/kg | 3.19 L/kg | 6.51 h | 
7 | CCNCC(=O)N(C)CC(=O)Nc1nc2ccc(OC(F)(F)F)cc2s1 [Example 123, 2-(ethylamino)-N-methyl-N-(2-oxo-2-((6-(trifluoromethoxy)benzo[d]thiazol-2-yl)amino)ethyl)acetamide] | 0.787 µg·h/mL | 3.54 L/h/kg | 2.04 L/kg | 0.68 h | 
8 | CCNCC(=O)N1CCC[C@@H]1C(=O)Nc1nc2ccc(OC(F)(F)F)cc2s1 [Example 52, (R)-1-N-ethylglycinyl-N-(6-(trifluoromethoxy)benzo [d]thiazol-2-yl) pyrrolidine-2-carboxamide] | 3.62 µg·h/mL | 0.54 L/h/kg | 3.55 L/kg | 4.75 h | 
9 | CNCC(=O)NC1(C(=O)Nc2nc3ccc(OC(F)(F)F)cc3s2)CCC1 [Example 83, 1-(2-(methylamino)acetamido)-N-(6-(trifluoromethoxy)benzo[d]thiazol-2-yl)cyclobutane-1-carboxamide] |  |  |  |  | AUC(0-t) ([1]; IV, prodrug dose 1.8 mg/Kg, read-out: Compound of the disclosure AUClast): 1.73 µg·h/mL; clearance ([1]; IV, prodrug dose 1.8 mg/Kg): 0.68 L/h/kg; Vd ([1]; IV, prodrug dose 1.8 mg/Kg): 5.06 L/kg; half-life ([1]; IV, prodrug dose 1.8 mg/Kg): 5.56 h
10 | Nc1nc2ccc(OC(F)(F)F)cc2s1 [riluzole] |  |  |  |  | Patients with clinical or radiologic evidence of tumor response ([3]; listed as Riluzole): four of 12; Patients with clinical or radiologic evidence of tumor response [3]: four of twelve

Now from value to compound, other results behind:

Row | AUC(0-t) [1, 4] | clearance ([1]; IV, prodrug dose 2.8 mg/Kg) | Vd ([1]; IV, prodrug dose 2.8 mg/Kg) | half-life ([1]; IV, prodrug dose 2.8 mg/Kg) | Compound | further results
11 | 3.25 µg·h/mL | 0.853 L/h/kg | 1.1 L/kg | 1.5 h | CN(CC(=O)Nc1nc2ccc(OC(F)(F)F)cc2s1)C(=O)CNC1COC1 [Example 234, N-Methyl-2-[(oxetan-3-yl)amino]-N-({[6-(trifluoromethoxy)-1,3-benzothiazol-2-yl]carbamoyl}methyl)acetamide] | 
12 | 0.232 µg·h/mL | 13.2 L/h/kg | 2.47 L/kg | 0.237 h | CN(CC(=O)Nc1nc2ccc(OC(F)(F)F)cc2s1)C(=O)CNC(=O)CN [Example 204, 2-Amino-N-{[methyl({[6-(trifluoromethoxy)-1,3-benzothiazol-2-yl]carbamoyl}methyl)carbamoyl]methyl}acetamide] | Cmax ([1]; PO 5 mg/kg): 1.84 ng/mL; Tmax ([1]; PO 5 mg/kg): 0.28 h; AUC(0-t) [1, 5]: 0.0009 µg·h/mL; AUC(0-inf) ([2]; IV 1 mg/kg, read-out: Prodrug AUCinf (Mean)): 0.533 µg·h/mL; AUC(0-t) ([2]; IV 1 mg/kg): 0.532 µg·h/mL; clearance ([2]; IV 1 mg/kg, read-out: Prodrug CL (Mean) (converted)): 1.94 L/h/kg; half-life ([2]; IV 1 mg/kg, read-out: Prodrug T1/2 (Mean) (converted)): 0.29 h; Vd ([2]; IV 1 mg/kg, read-out: Prodrug Vss (Mean)): 0.46 L/kg; Cmax ([2]; PO 5 mg/kg): 4.71 ng/mL; Tmax ([2]; PO 5 mg/kg): 0.33 h; AUC(0-t) ([2]; PO 5 mg/kg): 0.00385 µg·h/mL
13 | 1.72 µg·h/mL | 1.63 L/h/kg | 4.7 L/kg | 9.3 h | CN(CC(=O)Nc1nc2ccc(OC(F)(F)F)cc2s1)C(=O)C1(CN)CC1 [Example 119, 1-(aminomethyl)-N-methyl-N-(2-oxo-2-((6-(trifluoromethoxy)benzo[d]thiazol-2-yl)amino)ethyl)cyclopropane-1-carboxamide] | 
14 | 0.219 µg·h/mL | 3.98 L/h/kg | 0.861 L/kg | 0.28 h | CNCC(=O)N(C)CC(=O)Nc1nc2ccc(OC(F)(F)F)cc2s1 [Example 122, N-methyl-2-(methylamino)-N-(2-oxo-2-((6-(trifluoromethoxy)benzo[d]thiazol-2-yl)amino)ethyl)acetamide] | 
15 | 0.58 µg·h/mL | 4.87 L/h/kg | 2.67 L/kg | 0.63 h | CC(C)NCC(=O)N(C)CC(=O)Nc1nc2ccc(OC(F)(F)F)cc2s1 [Example 124, 2-(isopropylamino)-N-methyl-N-(2-oxo-2-((6-(trifluoromethoxy)benzo[d]thiazol-2-yl)amino)ethyl)acetamide] | 
16 | 2.48 µg·h/mL | 1.13 L/h/kg | 3.35 L/kg | 10.4 h | CN(CC(=O)Nc1nc2ccc(OC(F)(F)F)cc2s1)C(=O)C(C)(C)CN [Example 118, 3-Amino-N,2,2-trimethyl-N-(2-oxo-2-((6-(trifluoromethoxy)benzo[d]thiazol-2-yl)amino)ethyl)propanamide] | 
17 | 1.44 µg·h/mL | 1.34 L/h/kg | 9.66 L/kg | 6.7 h | NCC1(C(=O)N2CCC[C@@H]2C(=O)Nc2nc3ccc(OC(F)(F)F)cc3s2)CCCCC1 [Example 173, (R)-1-(1-(aminomethyl)cyclohexane-1-carbonyl)-N-(6-(trifluoromethoxy)benzo[d]thiazol-2-yl)pyrrolidine-2-carboxamide] | 
18 | 2.46 µg·h/mL | 1.14 L/h/kg | 3.63 L/kg | 8.66 h | CN(CC(=O)Nc1nc2ccc(OC(F)(F)F)cc2s1)C(=O)C1(CN)CCCC1 [Example 120, 1-(aminomethyl)-N-methyl-N-(2-oxo-2-((6-(trifluoromethoxy)benzo[d]thiazol-2-yl)amino)ethyl)cyclopentane-1-carboxamide] | 
19 | 1.29 µg·h/mL | 2.18 L/h/kg | 6.15 L/kg | 4.83 h | CN(CC(=O)Nc1nc2ccc(OC(F)(F)F)cc2s1)C(=O)C1(CN)CCCCC1 [Example 121, 1-(aminomethyl)-N-methyl-N-(2-oxo-2-((6-(trifluoromethoxy)benzo[d]thiazol-2-yl)amino)ethyl)cyclohexane-1-carboxamide] | 
